Test results as given in US20260091147A1, “METHOD FOR DETECTING INNATE IMMUNE ACTION IN VIVO USING GPR84-PET” (The Board of Trustees of the Leland Standford Junior …, priority 2023, published 2026).
Several values for one entry are separate records, joined by “and”; a condition that tells them apart may be missing. Identical values can stand only once.

Legend:
GPR84 [1] = target: T1, GPR84 (Homo sapiens, UniProt Q9NQS5); assay: In vitro autoradiography of human colon sections, active UC vs healthy; type: binding; design: from tissue; host or cells: human colon sections, active ulcerative colitis and matched healthy samples; settings: for tracer binding in active UC colon tissue vs matched healthy samples: 5 μm sections; for tracer signal in UC colon tissue after pre-blocking with GLPG1205: 1000× GLPG1205 by mass
Experimental: To investigate alterations in GPR84 mRNA expression under pro-inflammatory conditions, quantitative polymerase-chain reaction was performed using mouse brain and human monocyte-derived macrophage cells (hMDMs) treated with lipopolysaccharides (LPS) 24 hr prior to RNA extraction. [^11C]GLPG38 and [^18F]MGX-110S were made via [^11C]methylation of the desmethyl precursor and by copper mediated [^18F]fluorination of Bpin precursor respectively. Binding specificities of both tracers were assessed using human GPR84-stably-expressing human embryonic kidney cells (HEK-293) versus control HEK-293 cells. [^11C]GLPG38 binding was also assessed in hMDMs+/−treatment with LPS. Dynamic PET/CT imaging of healthy mice was commenced just prior to injection of [^11C]GLPG38 (100-150 μCi) or [^18F]MGX-110S (60-120 μCi) to determine biodistribution and kinetics. In vitro autoradiography (ARG) of human colon sections (5 μm) was conducted to test the ability of each tracer to detect innate immune activation in active UC.

[2] = Dynamic 60 min PET/CT of healthy mice, whole-brain time activity curve; type: in vivo, mouse
Source text: A transmission scan was acquired to correct for attenuation during image reconstruction. Following PET imaging, mice were transferred to a SOFIE GNEXT PET/CT for CT acquisition. PET/CT data were co-registered and analyzed using Inveon Research Workplace software to generate images and quantify radiotracer uptake in regions of interest (ROIs). A 3D ROI was manually defined for the whole brain using CT data as anatomical reference, then applied to the full dynamic data set to generate a time activity curve (TAC).
The count densities were averaged for all volumes of interest at each time point to obtain a time-activity curve (TAC). The TACs were normalized to injected dose, as measured by a CRC-15 PET dose calibrator (Capintec Inc.), and expressed as % injected dose per gram (% ID/g), assuming 1 g/mL. CT was performed in GNEXT depth of interaction (DOI) dual-layer detector system. Scintica VivoQuant software was used to visualize radiotracer uptake and define the 3D volumes of interest. 3D maximum intensity projection (MIP) PET/CT images were created using IRW software.
On days 15-16 after EAE induction, mice were catheterized and placed on the 4-mouse scanning bed of the Sofie GNEXT PET/CT scanner.

GPR84 [3] = target: T1, GPR84; assay: Radiotracer cell binding, hGPR84-HEK-293 vs control HEK-293 cells, with or without GLPG1205 block; type: cell-based; design: host or cells: HEK-293 cells, lentivirally transduced, puromycin-selected monoclonal line; settings: for fold higher binding to hGPR84-HEK-293 cells vs control cells: 40 min incubation; for reduction of tracer binding in hGPR84-HEK293 cells by GLPG1205: co-incubation with GLPG1205 35 μM (1000× by mass), 40 min
Experimental: GPR84-transduced HEK-293 cells and control HEK-293 cells were plated at a concentration of 3×10^5 cells per well in media (DMEM with 10% FBS and 1% anti-anti) into three 12-well plates 16-24 hr prior to the cell binding assay. Once cells reached ˜90% confluency, the radiotracer was prepared. […] The radiotracer was diluted in DMEM without FBS or antibiotic to yield a 30 mL solution where the amount of activity was 25 μCi in 500 μL. The first 12-well plate was incubated for 20 minutes at 37° C. and 5% CO2 in air while the next was incubated for 40 minutes at the same conditions. Cells were subsequently washed with PBS, trypsinized, resuspended in DMEM+10% FBS, and pipetted into gamma counting tubes at 500 μL volume. Radioactivity levels bound to cells were measured in a gamma counter (Hidex Oy, Helsinki, Finland), and cell counts were recorded using Trypan blue and an automatic cell counter to normalize radioactivity levels to cell count.
At the indicated time points, plates were placed on ice, washed three times with ice-cold phosphate-buffered saline (PBS), and trypsinized (150 μL per well) for 2 min at 37° C. The trypsin was neutralized by adding 600 μL DMEM containing 10% FBS (original cell culture media) to each well. […] Gamma counting was performed to quantitate percentage radiotracer uptake by the cells and decay-corrected radioactivity was determined (Hidex automated gamma counter). Finally, cells in each gamma counting tube were counted by using the Countess cell counter (Life Technologies). Cell binding was expressed in terms of % uptake/million cells.
GPR84-transduced HEK-293 cells and control HEK-293 cells from Creative Biogene were plated at a concentration of 3×10^5 cells per well in media (DMEM with 10% FBS and 1% anti-anti) into a 12-well plate for 16-24 hr. HEK-293 cells were stably transduced via the following process from Creative Biogene: construction of pLVX-CMV-Human-GPR84-PGK-Puro lentiviral expression plasmid, lentivirus production, lentivirus transduction, puromycin selection of polyclonal stable HEK293-Human-GPR84 cells, screening of monoclonal stable HEK293-Human-GPR84 cells via limited dilution, validation using qPCR, then mycoplasma detection by PCR and Lonza kit. Once cells reached ˜90% confluency, the radiotracer was prepared. The radiotracer was diluted in DMEM without FBS or antibiotic to yield a 30 mL solution such that the amount of activity was 50 μCi/mL for ^11C or 2 μCi/mL for ^18F. […] The 12-well plate was incubated for 40 min at 37° C. and 5% CO2 in air. […] Radioactivity levels bound to cells were measured in a gamma counter (Hidex Oy, Helsinki, Finland), and cell counts were recorded using Trypan blue and an automatic cell counter to normalize radioactivity levels to cell count.

T1 sequence (Q9NQS5 whole entry): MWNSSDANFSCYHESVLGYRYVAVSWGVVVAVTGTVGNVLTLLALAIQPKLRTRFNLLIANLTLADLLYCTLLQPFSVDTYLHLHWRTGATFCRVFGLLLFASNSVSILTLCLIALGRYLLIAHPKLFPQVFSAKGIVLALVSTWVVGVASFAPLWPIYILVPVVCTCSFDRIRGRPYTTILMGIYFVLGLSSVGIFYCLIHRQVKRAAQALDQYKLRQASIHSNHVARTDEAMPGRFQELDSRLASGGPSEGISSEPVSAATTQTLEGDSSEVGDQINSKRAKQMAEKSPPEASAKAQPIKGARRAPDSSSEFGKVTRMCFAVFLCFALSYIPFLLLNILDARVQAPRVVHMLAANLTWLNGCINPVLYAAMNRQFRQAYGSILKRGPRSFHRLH

SMILES | tracer binding in active UC colon tissue vs matched healthy samples (GPR84 [1]) | tracer signal in UC colon tissue after pre-blocking with GLPG1205 (GPR84 [1]) | whole-brain uptake after washout, end of 60 min scan ([2]; healthy mice) [% ID/g] | whole-brain uptake at 4 minutes post injection ([2]; naive wild-type mice) [% ID/g] | fold higher binding to hGPR84-HEK-293 cells vs control cells (GPR84 [3]) | reduction of tracer binding in hGPR84-HEK293 cells by GLPG1205 (GPR84 [3]) | time of peak brain uptake ([2]; naive mice, n=3) [min]
Cc1cc2c(cc1O[11CH3])CCn1c-2c(C)c(OC[C@@H]2COCCO2)cc1=O [[^11C]GLPG38] | marked increase of binding | markedly attenuated | 3.53 | 9.46 | 13.5 fold | 90% and > 90% | 
O=c1nc(OC[C@@H]2COCCO2)cc2n1CCc1cc([18F])ccc1-2 [^18F-MGX-110S] | marked increase of binding | markedly attenuated |  |  | 33.4 fold and 25 fold | > 90% | 0.25
